Patent US20230092490A1, “PHARMACEUTICAL COMPOSITIONS COMPRISING DASATINIB ANHYDROUS AND USES THEREOF” (ZENTIVA K.S., priority 2020, published 2023)
Like-named read-outs stand apart in the source and are kept apart here.

Columns and labels:
[1] = Preliminary bioequivalence study of DA1 vs. RP in eighty healthy subjects; type: in vivo, human; conditions: total study population
Protocol: First, a preliminary bioequivalence study assessed in-vivo absorption of DA1 and RP. This bioequivalence study and its results are summarized in Example 2, below, and data are shown in FIG. 3 to FIG. 6 for four exemplary subjects A to D in that study.
Example 3, together with corresponding Table 4, presents additional results from the clinical study of Example 2, comparing the bioavailability of DA1 vs RP.
A preliminary bioequivalence study in eighty (80) healthy subjects was conducted to test the in-vivo absorption of RP and DA1.
Additional data from the bioequivalence study of Example 2, which compared the bioequivalence of DA1 against the reference product (“RP”) are summarised in Table 4 below.

[2] = cited from earlier work
[3] = in vivo; cited from earlier work
[4] = pH 2.6; cited from earlier work
[5] = Oral bioavailability and pharmacokinetics of dasatinib monohydrate (background); conditions: human, in vivo, read-out: subjects exhibiting atypical pharmacokinetic profiles (reduced bioavailability, likely achlorhydria or hypochlorhydria)
[6] = administered 10 hours following the H2 antagonist famotidine
[7] = co-administration with aluminium hydroxide or magnesium hydroxide
[8] = single 100 mg dose 22 hours following a 4-day 40-mg omeprazole dose at steady state

With `Cc1nc(Nc2ncc(C(=O)Nc3c(C)cccc3Cl)s2)cc(N2CCN(CCO)CC2)n1` [Dasatinib anhydrous, N-(2-chloro-6-methylphenyl)-2-[[6-[4-(2-hydroxyethyl)-1-piperazinyl]-2-methyl-4-pyrimidinyl]amino]-5-thiazolecarboxamide] the “absorption across all subjects” value [1] was “absorbed in all subjects”.

In the case of `Cc1nc(Nc2ncc(C(=O)Nc3c(C)cccc3Cl)s2)cc(N2CCN(CCO)CC2)n1` [dasatinib monohydrate, N-(2-chloro-6-methylphenyl)-2-[[6-[4-(2-hydroxyethyl)-1-piperazinyl]-2-methyl-4-pyrimidinyl]amino]-5-thiazolecarboxamide], the “reduction of AUC” value [2, 6] is listed as 61%, the “reduction of Cmax” value [2, 6] is listed as 63% and the “reduction in Cmax” value [2, 7] is listed as 58%. The “reduction of the area under the curve (AUC)” value [2, 7] was 55%, the “reduction of AUC” value [2, 8] was 43% and the “reduction of Cmax” value [2, 8] was 42%. For the same molecule, the “time at which peak concentration is reached” value [3] was 1 to 2 h, the “thermodynamic (equilibrium) solubility” value [4] was 18.4 mg/mL and the percentage of subjects with atypical pharmacokinetic profiles [5] was 3.5 to 7.5%.
